In patent US20250287945A1, “COMPOSITIONS FOR FUNGAL CONTROL AND RELATED METHODS” (priority 2021, published 2025):
Values joined by “and” are separate entries in the source; they are usually repeats but may differ in a detail not shown here. Equal values may be shown once. “Also recorded” adds a separate entry of the source. Read-outs that look alike come from different tables or passages of the source.

Assays:
[1] = test system: Fusarium conidial suspension; assay: Fusarium viability colorimetric assay (PrestoBlue resazurin); assay type: cell-based
Experimental: A Fusarium conidial suspension was prepared from a 7-day culture of Fusarium biomass grown on potato dextrose agar for 7 days, and quantified by hemocytometer, as described in Example 4. Solutions of fenpiclonil (Millipore Sigma, Cat. no. 36532) and of the individual peptides were prepared in 50% (w/v) ethanol in water, and tested using a PrestoBlue™ (resazurin) viability colorimetric assay as described in Example 4.
The Fusarium conidial suspension, peptide or control treatment solution, and potato dextrose broth (Alpha Biosciences, catalogue no. P16-126) were added to each well of a 96-well plate to obtain the desired treatment concentration and 1×10^6 conidia/mL in a final volume of 150 microliters per well. The plates were covered and incubated at 30° C. for 18 hours and 200 rpm. Fifteen microliters of PrestoBlue™ Cell Viability Reagent (Thermofisher Scientific, Cat no. A13262) were added to each well, and the plate was further incubated before measuring fluorescence at 590 nm emission with excitation at 560 nm using a spectrophotometer (BioTek Synergy H1 Microplate Reader, Fischer Scientific, Cat. no. 11-120-533).

[2] = test system: Botrytis cinarea (strain CBS 261.71); assay: Botrytis viability colorimetric assay (PrestoBlue resazurin); assay type: cell-based, Botrytis cinerea; conditions: for viability decrease relative to that obtained with the positive control (fenpiclonil): sentence prints Fusarium in the Botrytis assay
[3] = test system: conidia of Fusarium proliferatum; assay: oCelloScope live-cell imaging of fungal growth (SESA algorithm); assay type: cell-based
[4] = test system: Aspergillus fumigatus CBS 120.53; assay: Micro broth dilution assay in 96-well plates; assay type: cell-based; conditions: 3 days of incubation; 375 micromolar or 187.5 micromolar; preliminary
[5] = test system: Aspergillus flavus DSM 1959; assay: Micro broth dilution assay in 96-well plates; assay type: cell-based; conditions: 3 days of incubation; 375 micromolar or 187.5 micromolar; preliminary
[6] = test system: Fusarium oxysporum CBS 130311; assay: Micro broth dilution assay in 96-well plates; assay type: cell-based; conditions: 3 days of incubation; 375 micromolar or 187.5 micromolar; preliminary
[7] = test system: Mucor circinelloides f. janssenii CBS 204.68; assay: Micro broth dilution assay in 96-well plates; assay type: cell-based; conditions: 3 days of incubation; 375 micromolar or 187.5 micromolar; preliminary
[8] = test system: Rhizomucor miehei CBS 147454; assay: Micro broth dilution assay in 96-well plates; assay type: cell-based; conditions: 3 days of incubation; 375 micromolar or 187.5 micromolar; preliminary
[9] = test system: Cryptococcus neoformans DSM 70219; assay: Micro broth dilution assay in 96-well plates; assay type: cell-based; conditions: 2 days of incubation; 375 micromolar; preliminary
Botrytis cinerea = assay: Fungal lesion size on detached Nicotiana benthamiana leaves after topical treatment; assay type: in vivo, Botrytis cinerea on Nicotiana benthamiana leaves
Experimental: In one experiment, leaves of similar age were cut from healthy Nicotiana benthamiana plants and the petioles set into plates containing water agar. Leaves were visually divided into quadrants. […] The plates were covered and placed in a humidified secondary container and incubated in a growth chamber under a 14-hour light (20 degrees C.): 10-hour dark (18 degrees C.) cycle. After 11 days, fungal lesions on leaves were photographed and measured manually with a ruler. Leaves were then destained in 70% ethanol for 48 hours with a change of ethanol at 24 hours, rehydrated in water for at least 1 hour, photographed, and the area of the fungal lesions quantified using ImageJ software (see imagej[dot]nih[dot]gov/ij/). […] The leaf quadrants inoculated with B. cinerea and treated with 100 microliters of treatment solution (MES buffer or HH38 in MES buffer) had comparatively larger areas wetted with liquid. All of the leaf quadrants treated with 5 mM MES buffer developed large (average 1.72 cm width) fungal lesions characterized by grey-black fungal growth. […] […] Twenty microliters of a given treatment mixture were pipetted onto a leaf quadrant (3 replicate leaves per treatment for a total of 12 quadrants). After 7 days incubation in a growth chamber, leaves were photographed, destained in 70% ethanol, photographed again, and the area of the fungal lesions quantified using ImageJ software. […] The fungal lesions in the HH38 treatment were also observed to be 39% smaller than in the 2% DMSO treatment, and 19% smaller than in the 5 mM MES treatment, although not to a statistically significant degree using an unpaired t test.

[10] = 375 micromolar, four replicates
[11] = first experiment, 275 micromolar HH38 in 5 mM MES buffer, after 11 days, lesion area by ImageJ, replicate leaves 1-3
[12] = first experiment, 275 micromolar HH38 in 5 mM MES buffer, after 11 days, ruler, replicate leaves 1-3
[13] = second experiment, inoculum pre-mixed with HH38, 7 days, ImageJ area, not statistically significant

| Sequence | Percent Inhibition (Fusarium), Experiment 5, Mean [1] [%] | Percent Inhibition (Botrytis), Mean [2, 10] [%] | statistical comparison of normalized values with the untreated control [3] | statistical significance of antifungal activity [3] | SESA value normalized against the untreated control, mean (x) ([3]; 22 hours) | Fusarium cell viability versus untreated / 50% ethanol carrier [1] | Percent Inhibition (Fusarium), Experiment 4, Mean [1] [%] | inhibition of growth / growth pattern [4] | inhibition of growth / growth pattern [5] | inhibition of growth / growth pattern [6] | inhibition of growth / growth pattern [7] | inhibition of growth / growth pattern [8] | growth / growth pattern [9] | Botrytis cell viability versus untreated / 50% ethanol carrier ([2]; 375 micromolar) | viability decrease relative to that obtained with the positive control (fenpiclonil) ([2]; 375 micromolar) | further results |
| --- | --- | --- | --- | --- | --- | --- | --- | --- | --- | --- | --- | --- | --- | --- | --- | --- |
| GWHWLQLKPGQPMY (listed as Saccharomyces cerevisiae) [SEQ ID NO: 2187, Saccharomyces cerevisiae alpha pheromone with N-terminal glycine] | 66.96 | 66.96 | significantly lower than the untreated control | statistically significant antifungal activity | 0.519 and 0.367 |  |  |  |  |  |  |  |  |  |  |  |
| WCGRPGQPC (REGION 1..9: note = Botrytis spp.) [SEQ ID NO: 2183, Botrytis cinerea alpha pheromone] | 42.81 | −22.63 |  |  | 1.540 and 1.743 | decreasing Fusarium cell viability; also recorded: decreased Fusarium cell viability; also recorded: less pronounced | 46.67 | No inhibition of growth | No inhibition of growth | No inhibition of growth | No inhibition of growth | No inhibition of growth | reduced growth |  |  |  |
| WCTWKGQPCW [SEQ ID NO: 2182] | 28.39 |  |  |  |  | decreasing Fusarium cell viability; also recorded: decreased Fusarium cell viability; also recorded: less pronounced | 47.78 |  |  |  |  |  |  |  |  | Botrytis cell viability versus untreated / 50% ethanol carrier [2]: decreased Botrytis cell viability; Percent Inhibition (Botrytis), Mean [2]: 8.56%; SESA value normalized against the untreated control, mean (x) [3]: 1.554 and 1.510 |
| WHWLQLKPGQPMY (listed as Saccharomyces cerevisiae) [SEQ ID NO: 2184, Saccharomyces cerevisiae alpha pheromone] | 62.01 | 45.14 | significantly lower than the untreated control | statistically significant antifungal activity |  |  | 66.33 | No inhibition of growth | No inhibition of growth | No inhibition of growth | No inhibition of growth | No inhibition of growth | reduced growth | decreased Botrytis cell viability | roughly about two-thirds of the viability decrease obtained using the positive control |  |
| WHWLQLKPGQPMYG (listed as Saccharomyces cerevisiae) [SEQ ID NO: 2186, Saccharomyces cerevisiae alpha pheromone with C-terminal glycine] | 66.45 | 47.30 | significantly lower than the untreated control | statistically significant antifungal activity | 1.119 and 0.742 | greatly decreased Fusarium cell viability to about the same level as did the positive control | 64.21 |  |  |  |  |  |  |  |  |  |
| WHWLQLKPGQPMYGGGGSWHWLQLKPGQPMY (listed as Saccharomyces cerevisiae) [SEQ ID NO: 2189, Saccharomyces cerevisiae alpha pheromone homodimer including glycine linker] | 79.77 | 79.77 |  | statistically significant antifungal activity |  |  |  | sometimes induced changes in growth pattern | sometimes induced changes in growth pattern | sometimes induced changes in growth pattern | sometimes induced changes in growth pattern | sometimes induced changes in growth pattern | change this species' growth pattern | reducing Botrytis cell viability as well as did the fenpiclonil treatment | roughly about two-thirds of the viability decrease obtained using the positive control | Lesion 1 (cm) (Botrytis cinerea; first experiment, 275 micromolar HH38 in 5 mM MES buffer, 100 microliters per inoculated leaf quadrant, after 11 days, measured with a ruler, replicate leaves 1-3): 0 cm; Lesion 1 (pixels) (Botrytis cinerea; first experiment, 275 micromolar HH38 in 5 mM MES buffer, after 11 days, destained leaves, lesion area by ImageJ, replicate leaves 1-3): 0 pixels; Treatment Average (pixels) (Botrytis cinerea; first experiment, 275 micromolar HH38 in 5 mM MES buffer, after 11 days, lesion area by ImageJ, average of 3 leaves): 157 pixels; Replicate Averages (pixels) (Botrytis cinerea; first experiment, 275 micromolar HH38 in 5 mM MES buffer, after 11 days, lesion area by ImageJ, average of 4 quadrants): 0.00 pixels (2×) and 472 pixels; Lesion 2 (pixels) (Botrytis cinerea; [11]): 0 pixels (2×) and 1889 pixels; Lesion 3 (pixels) (Botrytis cinerea; [11]): 0 pixels; Lesion 4 (pixels) (Botrytis cinerea; [11]): 0 pixels; Treatment Average (cm) (Botrytis cinerea; first experiment, 275 micromolar HH38 in 5 mM MES buffer, after 11 days, ruler, average of 3 leaves): 0.042 cm; Average (cm) per replicate leaf (Botrytis cinerea; first experiment, 275 micromolar HH38 in 5 mM MES buffer, after 11 days, ruler, average of 4 quadrants): 0 cm (2×) and 0.12 cm; Lesion 2 (cm) (Botrytis cinerea; [12]): 0 cm (2×) and 0.5 cm; Lesion 3 (cm) (Botrytis cinerea; [12]): 0 cm; Lesion 4 (cm) (Botrytis cinerea; [12]): 0 cm; leaf quadrants that developed any measurable fungal lesion (Botrytis cinerea; first experiment, result sentence prints 375 micromolar HH38 (method: 275 micromolar), after 11 days): 1 out of 12; fungal lesions smaller than in the 5 mM MES treatment (Botrytis cinerea; [13]): 19%; fungal lesions smaller than in the 2% DMSO treatment (Botrytis cinerea; [13]): 39%; fungal lesions smaller than the untreated (diluted grape juice) control (Botrytis cinerea; second experiment, inoculum pre-mixed with in 2% DMSO in 5 mM MES buffer, 7 days, ImageJ area, statistically significant (unpaired t test)): 44% |
| WHWLQLKPGQPMYWHWLQLKPGQPMY (listed as Saccharomyces cerevisiae) [SEQ ID NO: 2188, Saccharomyces cerevisiae alpha pheromone homodimer with no linker] | 71.82 | 71.82 |  | statistically significant antifungal activity | 0.330 and 0.351 |  |  |  |  |  |  |  |  | reducing Botrytis cell viability as well as did the fenpiclonil treatment | roughly about two-thirds of the viability decrease obtained using the positive control |  |
| WKMGQYHQLPPLW [SEQ ID NO: 2185] | 69.60 | 52.30 |  |  |  | greatly decreased Fusarium cell viability to about the same level as did the positive control | 70.84 |  |  |  |  |  |  |  |  | SESA value normalized against the untreated control, mean (x) ([3]; 250 micromolar (nominal, filtered), 22 hours, 30% potato dextrose broth): 0.850; SESA value normalized against the untreated control, mean (x) ([3]; 375 micromolar (nominal, filtered), 22 hours, 30% potato dextrose broth): 0.439; statistical comparison of normalized values with the untreated control ([3]; nominal concentration of 375 micromolar): significantly lower than the untreated control |
